Assay results reported in patent publication US12186283B2, “Bismuth-thiol compositions and methods of use” (Microbion Corporation, priority 2018, dated 2025).
Where “and” joins values, the source holds several entries; their conditions need not be identical. Equal values may be shown once.

Assays:
[1] = Aerosol particle size distribution of nebulized suspensions (cascade impactor / APS)
[2] = Clinical chemistry after face-mask inhalation in beagle dogs; format: in vivo; details: times not given
Experimental: The objective of the study is to determine the maximum tolerated dose (MTD) or maximum feasible dose (MFD) of inhaled bismuth ethanedithiol (BisEDT) after face-mask inhalation exposure (up to 60 min of exposure) in male and female beagle dogs. Animals will be monitored for up to 14 days following the first day of exposure and blood will be collected at predetermined timepoints to analyze the pharmacokinetics of BisEDT. In addition, a coagulation panel will be conducted prior to necropsy. At the conclusion of the study animals will be euthanized and undergo necropsy during which the respiratory tract will be harvested for bioanalytical and histopathological analysis. Results obtained will inform a follow up repeated dose GLP study. This test article is currently being developed as a novel formulation of a broad spectrum antimicrobial/antibiofilm agent, indicated for the treatment of lung infections in patients with cystic fibrosis.
Once adequately conditioned to the restraint device and face-masks, the animals are individually exposed to the test article aerosols. Animals receive a single face-mask inhalation exposure in a ramp study design to test article aerosols for up to 60 min. Animal observations during and post exposure determine the tolerance of inhaled BisEDT aerosols.
Group 1 (vehicle) are exposed to a vehicle atmosphere for 30 minutes. Group 2 (50 μg/kg) are exposed to BisEDT for 30 minutes. Target concentrations and exposure durations for Groups 3-5 are based on the presence of any toxicity via clinical observations or gross necropsy findings. In each of Groups 3-5, if no adverse clinical signs of toxicity are observed, the next groups' exposure will be conducted at a higher target dose. If adverse clinical signs of toxicity are observed, the next groups' exposure will be conducted at a lower target dose. This approach is repeated for all BisEDT doses. The final documented exposure duration is the maximum tolerated dose or the maximum feasible dose.
Blood are collected for pharmacokinetic (PK) analysis prior to exposure, then at 4 hr (±5 min) post exposure, and again on Day 1, Day 2, Day 7 (pre- and 4 hr (±5 min)-post exposure), Day 8, Day 9, Day 10, Day 11, Day 12, Day 13, and Day 14. A total of 0.25 mL is collected at each timepoint. No PK blood is collected from the vehicle control (Group 1) animals; only animals exposed to BisEDT have blood collected for PK analysis. Collected samples are flash frozen without processing for shipment to Medpace for bioanalytical analysis. Additional blood is collected from all animals in all groups for hematology (1 mL) and clinical chemistry (1 mL) at baseline, Day 7 (pre-exposure), and again at euthanasia. Blood (2-2 mL) is collected from all animals at necropsy for coagulation analysis (d-Dimer, fibrinogen, PT, and PTT).
For clinical chemistry analyses, whole blood (1 mL) is placed into serum separator or clot tube and […] by centrifugation at a minimum of 1300 g at 2 to 8° C. for 10 (±1) min. Plasma samples are stored at −70 to −90° C. until analysis.
Clinical chemistry samples are analyzed on a Hitachi Modular Analytics Clinical Chemistry System (Roche Diagnostics, Indianapolis, IN).

[3] = Grp 2, dogs 2001 male, 2002 female, 3 samplings each
[4] = Grp 3, dogs 3001 male, 3002 female, 3 samplings each
[5] = Grp 4, dogs 4001 male, 4004 female (3 samplings each), 4002 female, 4003 male (2 samplings each)
[6] = Grp 4 Avg (stands after dogs 4001, 4004), 3 samplings

C1C[S][Bi]([S]CC[S][Bi]2[S]CC[S]2)[S]1 [BisEDT, bismuth-1,2-ethanedithiol]
Particle Size (GSD) ([1]; BisEDT Lot # ED268-1-11-01, formulation 25 mg/mL, APS): 2.98 (1.8) μm
Particle Size (GSD) ([1]; BisEDT Lot # ED268-1-11-01, formulation 50 mg/mL, APS): 2.83 (1.9) μm
Particle Size (GSD) ([1]; BisEDT Lot # ED268-1-11-01, formulation 75 mg/mL, APS): 3.16 (1.70) μm
Particle Size (GSD) ([1]; BisEDT Lot # ED268-1-11-01, formulation 100 mg/mL, APS): 3.53 (1.71) μm
Particle Size (GSD) ([1]; BisEDT Lot # ED268-1-11-01, formulation 100* mg/mL (asterisk not explained), APS): 3.60 (1.71) μm
Particle Size (GSD) ([1]; BisEDT Lot # ED268-1-11-01 suspension, formulation 1 mg/mL, PARI LC PLUS nebulizer, APS): 1.65 (1.6) μm
Particle Size (GSD) ([1]; BisEDT Lot # XL-47-125, 300 mOsmol/kg vehicle, formulation 10 mg/mL): 1.61 (1.65) μm
Particle Size (GSD) ([1]; BisEDT Lot # XL-47-125, 300 mOsmol/kg vehicle, formulation 50 mg/mL): 2.79 (1.69) μm
Particle Size (GSD) ([1]; BisEDT Lot # XL-47-125, 300 mOsmol/kg vehicle, formulation 100 mg/mL (two tests)): 2.90 (1.67) μm and 2.60 (1.65) μm
MMAD ([1]; exposure aerosols of the rat efficacy study, In-Tox Mercer Impactor): 1.54 μm
AGR [2, 3]: 1.9 and 2.0 and 1.8 and 1.7 and 2.3
ALB [2, 3]: 3.3 g/dL and 3.4 g/dL and 3.5 g/dL and 3.6 g/dL and 3.7 g/dL
ALT [2, 3]: 22 IU/L and 18 IU/L and 29 IU/L and 27 IU/L
AST [2, 3]: 48 IU/L and 36 IU/L and 35 IU/L and 41 IU/L and 38 IU/L
BUN [2, 3]: 12 mg/dL and 16 mg/dL and 15 mg/dL and 13 mg/dL and 14 mg/dL
CA2 [2, 3]: 10.9 mg/dL and 10.8 mg/dL and 11.0 mg/dL and 10.6 mg/dL
CHOL [2, 3]: 168 mg/dL and 167 mg/dL and 152 mg/dL and 138 mg/dL and 123 mg/dL and 114 mg/dL
CREA [2, 3]: 0.7 mg/dL and 0.6 mg/dL
GGT [2, 3]: 3 IU/L
GLOB [2, 3]: 1.7 g/dL and 2.0 g/dL and 1.9 g/dL and 1.6 g/dL
GLUC [2, 3]: 91 mg/dL and 97 mg/dL and 102 mg/dL and 95 mg/dL and 98 mg/dL and 89 mg/dL
K [2, 3]: 4.5 mmo/L and 4.9 mmo/L and 4.7 mmo/L and 5.0 mmo/L and 5.2 mmo/L and 4.6 mmo/L
Na [2, 3]: 149 mmo/L and 147 mmo/L and 148 mmo/L
TBIL [2, 3]: 0.15 mg/dL
TP [2, 3]: 5.0 g/dL and 5.1 g/dL and 5.5 g/dL and 5.2 g/dL and 5.3 g/dL
AGR ([2]; Grp 2 Avg, 3 samplings): 1.8 and 2.2 and 2.1
ALB ([2]; Grp 2 Avg, 3 samplings): 3.3 g/dL and 3.5 g/dL and 3.6 g/dL
ALPK ([2]; Grp 2 Avg, 3 samplings): 186 IU/L and 126 IU/L and 116 IU/L
ALT ([2]; Grp 2 Avg, 3 samplings): 20 IU/L and 26 IU/L and 25 IU/L
AST ([2]; Grp 2 Avg, 3 samplings): 42 IU/L and 39 IU/L and 37 IU/L
BUN ([2]; Grp 2 Avg, 3 samplings): 13 mg/dL and 15 mg/dL
CA2 ([2]; Grp 2 Avg, 3 samplings): 10.9 mg/dL and 10.8 mg/dL
CHOL ([2]; Grp 2 Avg, 3 samplings): 153 mg/dL and 145 mg/dL and 133 mg/dL
CREA ([2]; Grp 2 Avg, 3 samplings): 0.7 mg/dL and 0.6 mg/dL
GGT ([2]; Grp 2 Avg, 3 samplings): 3 IU/L
GLOB ([2]; Grp 2 Avg, 3 samplings): 1.8 g/dL and 1.7 g/dL
GLUC ([2]; Grp 2 Avg, 3 samplings): 93 mg/dL and 98 mg/dL and 96 mg/dL
K ([2]; Grp 2 Avg, 3 samplings): 4.8 mmo/L and 5.1 mmo/L and 4.7 mmo/L
Na ([2]; Grp 2 Avg, 3 samplings): 149 mmo/L and 147 mmo/L and 148 mmo/L
TBIL ([2]; Grp 2 Avg, 3 samplings): 0.15 mg/dL
TP ([2]; Grp 2 Avg, 3 samplings): 5.1 g/dL and 5.2 g/dL and 5.4 g/dL
TRIG ([2]; Grp 2 Avg, 3 samplings): 52 mg/dL and 60 mg/dL and 47 mg/dL
AGR [2, 4]: 2.0 and 2.1 and 2.3 and 1.8 and 2.6
ALB [2, 4]: 3.2 g/dL and 3.4 g/dL and 3.5 g/dL and 3.7 g/dL
ALPK [2, 4]: 142 IU/L and 135 IU/L and 121 IU/L and 164 IU/L and 90 IU/L and 176 IU/L
ALT [2, 4]: 26 IU/L and 24 IU/L and 22 IU/L and 28 IU/L and 20 IU/L
AST [2, 4]: 30 IU/L and 32 IU/L and 33 IU/L and 28 IU/L
CA2 [2, 4]: 10.7 mg/dL and 10.5 mg/dL and 10.0 mg/dL and 11.2 mg/dL and 10.8 mg/dL and 10.4 mg/dL
CHOL [2, 4]: 100 mg/dL and 111 mg/dL and 126 mg/dL and 175 mg/dL and 141 mg/dL
CREA [2, 4]: 0.6 mg/dL and 0.7 mg/dL and 1.0 mg/dL and 0.5 mg/dL and 0.9 mg/dL
GGT [2, 4]: 3 IU/L
GLOB [2, 4]: 1.6 g/dL and 1.7 g/dL and 1.5 g/dL and 2.0 g/dL and 1.4 g/dL
K [2, 4]: 4.7 mmo/L and 5.1 mmo/L and 5.8 mmo/L and 5.5 mmo/L and 5.3 mmo/L and 5.9 mmo/L
Na [2, 4]: 146 mmo/L and 148 mmo/L and 149 mmo/L and 145 mmo/L
TBIL [2, 4]: 0.15 mg/dL
TP [2, 4]: 4.8 g/dL and 5.1 g/dL and 5.0 g/dL and 5.5 g/dL
AGR ([2]; Grp 3 Avg, 3 samplings): 2.2 and 1.9 and 2.4
ALB ([2]; Grp 3 Avg, 3 samplings): 3.4 g/dL and 3.5 g/dL and 3.6 g/dL
ALPK ([2]; Grp 3 Avg, 3 samplings): 153 IU/L and 113 IU/L and 149 IU/L
ALT ([2]; Grp 3 Avg, 3 samplings): 27 IU/L and 22 IU/L and 21 IU/L
AST ([2]; Grp 3 Avg, 3 samplings): 30 IU/L and 32 IU/L
CA2 ([2]; Grp 3 Avg, 3 samplings): 11.0 mg/dL and 10.7 mg/dL and 10.2 mg/dL
CHOL ([2]; Grp 3 Avg, 3 samplings): 113 mg/dL and 143 mg/dL and 126 mg/dL
CREA ([2]; Grp 3 Avg, 3 samplings): 0.6 mg/dL and 1.0 mg/dL
GGT ([2]; Grp 3 Avg, 3 samplings): 3 IU/L
GLOB ([2]; Grp 3 Avg, 3 samplings): 1.6 g/dL and 1.9 g/dL and 1.5 g/dL
GLUC ([2]; Grp 3 Avg, 3 samplings): 106 mg/dL and 89 mg/dL and 58 mg/dL
K ([2]; Grp 3 Avg, 3 samplings): 5.1 mmo/L and 5.2 mmo/L and 5.9 mmo/L
Na ([2]; Grp 3 Avg, 3 samplings): 148 mmo/L and 146 mmo/L and 149 mmo/L
TBIL ([2]; Grp 3 Avg, 3 samplings): 0.15 mg/dL
TP ([2]; Grp 3 Avg, 3 samplings): 4.9 g/dL and 5.3 g/dL and 5.1 g/dL
TRIG ([2]; Grp 3 Avg, 3 samplings): 30 mg/dL and 39 mg/dL and 55 mg/dL
AGR [2, 5]: 2.3 and 1.8 and 1.9 and 2.0 and 1.7 and 1.6
ALB [2, 5]: 3.6 g/dL and 3.4 g/dL and 3.2 g/dL and 3.3 g/dL and 3.5 g/dL
ALPK [2, 5]: 103 IU/L and 114 IU/L and 119 IU/L and 93 IU/L and 95 IU/L and 147 IU/L and 146 IU/L and 129 IU/L
ALT [2, 5]: 27 IU/L and 28 IU/L and 25 IU/L and 24 IU/L and 20 IU/L and 21 IU/L and 40 IU/L and 23 IU/L
AST [2, 5]: 32 IU/L and 39 IU/L and 34 IU/L and 33 IU/L and 38 IU/L and 31 IU/L and 35 IU/L and 30 IU/L
BUN [2, 5]: 11 mg/dL and 12 mg/dL and 13 mg/dL and 16 mg/dL and 15 mg/dL
CA2 [2, 5]: 10.8 mg/dL and 10.6 mg/dL and 10.4 mg/dL and 11.1 mg/dL and 11.2 mg/dL and 11.0 mg/dL
CREA [2, 5]: 0.7 mg/dL and 0.6 mg/dL and 0.5 mg/dL
GGT [2, 5]: 3 IU/L
GLOB [2, 5]: 1.6 g/dL and 1.9 g/dL and 1.7 g/dL and 2.1 g/dL and 2.0 g/dL
K [2, 5]: 4.7 mmo/L and 4.8 mmo/L and 4.6 mmo/L and 5.1 mmo/L and 4.3 mmo/L and 5.3 mmo/L and 4.9 mmo/L
Na [2, 5]: 152 mmo/L and 147 mmo/L and 145 mmo/L and 153 mmo/L and 148 mmo/L and 146 mmo/L and 149 mmo/L
TBIL [2, 5]: 0.15 mg/dL
TP [2, 5]: 5.2 g/dL and 5.3 g/dL and 4.9 g/dL and 5.1 g/dL and 5.0 g/dL and 5.6 g/dL and 5.5 g/dL and 5.4 g/dL
TRIG [2, 5]: 49 mg/dL and 46 mg/dL and 40 mg/dL and 53 mg/dL and 44 mg/dL and 34 mg/dL and 41 mg/dL and 55 mg/dL
AGR [2, 6]: 2.2 and 1.8 and 1.9
ALB [2, 6]: 3.5 g/dL and 3.4 g/dL and 3.3 g/dL
ALPK [2, 6]: 103 IU/L and 104 IU/L and 107 IU/L
ALT [2, 6]: 28 IU/L and 26 IU/L
AST [2, 6]: 33 IU/L and 39 IU/L
BUN [2, 6]: 12 mg/dL and 13 mg/dL
CA2 [2, 6]: 10.8 mg/dL and 10.7 mg/dL and 10.5 mg/dL
CHOL [2, 6]: 139 mg/dL and 136 mg/dL and 112 mg/dL
CREA [2, 6]: 0.7 mg/dL and 0.6 mg/dL
GGT [2, 6]: 3 IU/L
GLOB [2, 6]: 1.7 g/dL and 1.9 g/dL
GLUC [2, 6]: 102 mg/dL and 76 mg/dL and 91 mg/dL
K [2, 6]: 4.7 mmo/L and 5.0 mmo/L and 4.5 mmo/L
Na [2, 6]: 153 mmo/L and 148 mmo/L and 146 mmo/L
TBIL [2, 6]: 0.15 mg/dL
TP [2, 6]: 5.2 g/dL and 5.3 g/dL and 5.0 g/dL
TRIG [2, 6]: 51 mg/dL and 48 mg/dL and 42 mg/dL
